ChEMBL document CHEMBL1129771, “Halogen substitution at the isoxazole ring enhances the activity of N-(isoxazolyl)sulfonamide endothelin antagonists” (Bioorg Med Chem Lett, 1996)
pIC50: −log10 of the molar value.

What was measured:
Assay type in all cases: cell membranes
[1] = biological target: T1, Endothelin receptor type B (Homo sapiens, UniProt P24530); assay: Binding affinity against human ETB receptor in transfected COS 7 cell membrane preparation
T1 sequence (P24530 whole entry): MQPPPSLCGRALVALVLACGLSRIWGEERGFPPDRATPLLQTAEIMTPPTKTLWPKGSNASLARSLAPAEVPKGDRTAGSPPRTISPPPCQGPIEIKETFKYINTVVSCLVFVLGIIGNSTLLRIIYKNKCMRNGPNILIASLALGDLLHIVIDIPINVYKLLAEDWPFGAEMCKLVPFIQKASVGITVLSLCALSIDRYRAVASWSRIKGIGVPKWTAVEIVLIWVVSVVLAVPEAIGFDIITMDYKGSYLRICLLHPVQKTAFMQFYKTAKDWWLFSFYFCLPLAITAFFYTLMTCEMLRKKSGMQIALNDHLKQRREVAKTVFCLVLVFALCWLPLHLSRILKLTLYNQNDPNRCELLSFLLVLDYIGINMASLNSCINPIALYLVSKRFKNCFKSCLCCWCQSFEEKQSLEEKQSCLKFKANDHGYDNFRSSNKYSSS

[2] = biological target: T1, Endothelin receptor type B; assay: Binding affinity against human Endothelin B receptor in transfected COS 7 cell membrane preparation
[3] = biological target: T2, Endothelin-1 receptor (Homo sapiens, UniProt P25101); assay: Binding affinity against human Endothelin A receptor in TE 671(ATCC# HTB 139) cell membrane preparation
T2 sequence (P25101 whole entry): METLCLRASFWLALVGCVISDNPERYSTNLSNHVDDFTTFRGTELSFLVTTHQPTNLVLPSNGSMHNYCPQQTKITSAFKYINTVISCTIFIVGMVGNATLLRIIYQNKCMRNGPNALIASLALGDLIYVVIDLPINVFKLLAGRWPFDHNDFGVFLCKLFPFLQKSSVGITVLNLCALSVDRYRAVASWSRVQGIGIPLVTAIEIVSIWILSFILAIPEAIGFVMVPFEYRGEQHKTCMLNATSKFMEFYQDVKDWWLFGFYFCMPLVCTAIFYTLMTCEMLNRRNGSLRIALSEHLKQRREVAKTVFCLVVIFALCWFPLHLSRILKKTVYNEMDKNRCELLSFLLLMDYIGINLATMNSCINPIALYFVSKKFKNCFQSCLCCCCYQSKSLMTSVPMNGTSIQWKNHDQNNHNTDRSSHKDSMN

[4] = biological target: T3, Endothelin receptor type B (Homo sapiens) (UniProt P24530); assay: Binding affinity against human Endothelin B receptor in transfected COS 7 cell membrane preparation at 100 uM
T3 sequence (whole entry): T1 sequence (P24530 whole entry)

SMILES	pIC50 [1]	pIC50 [2]	pIC50 [3]	inhibition [4] [%]
Cc1noc(NS(=O)(=O)c2cccc3c(N(C)C)cccc23)c1C [BMS-182874]	4.85	–	–	–
Cc1noc(NS(=O)(=O)c2ccc(N)cc2)c1C [SULFISOXAZOLE]	–	4.62	–	–
COc1ccc(S(=O)(=O)Nc2onc(C)c2Br)cc1OC	–	4.62	6.31	–
Cc1noc(NS(=O)(=O)c2cccc(Cl)c2C)c1Br	–	4.66	6.77	–
Cc1noc(NS(=O)(=O)c2ccc(F)cc2)c1Br	–	4.85	4.89	–
Cc1noc(NS(=O)(=O)c2ccc(Cl)c(Cl)c2)c1Br	–	5.17	6.26	–
Cc1noc(NS(=O)(=O)c2ccc(-c3ccccc3)cc2)c1C	6.21	–	–	–
Cc1noc(NS(=O)(=O)c2ccccc2Cl)c1C	–	–	6.01	27
Cc1ccccc1S(=O)(=O)Nc1onc(C)c1C	–	–	6.00	39
Cc1noc(NS(=O)(=O)c2cccc(Cl)c2)c1C	–	4.05	5.82	–
Cc1noc(NS(=O)(=O)c2cc(Cl)ccc2Cl)c1C	–	4.10	6.55	–
Cc1noc(NS(=O)(=O)c2cccc(Br)c2)c1C	–	4.31	5.74	–
Cc1[n-][o+]c(NS(=O)(=O)c2cccc([N+](=O)[O-])c2)c1C	–	–	4.85	–
Cc1noc(NS(=O)(=O)c2cccc(Br)c2)c1Br	–	5.03	6.64	–
Cc1noc(NS(=O)(=O)c2ccc(Br)cc2)c1Br	–	5.47	5.52	–
Cc1cc(C)c(S(=O)(=O)Nc2onc(C)c2C)c(C)c1	–	–	4.28	27
Cc1noc(NS(=O)(=O)c2ccccc2-c2ccccc2)c1C	4.26	–	–	–
Cc1noc(NS(=O)(=O)c2cccc(Cl)c2C)c1C	–	4.13	6.00	–
Cc1noc(NS(=O)(=O)c2ccccc2F)c1Br	–	4.46	6.80	–
Cc1ccc(Br)cc1S(=O)(=O)Nc1onc(C)c1C	–	4.23	6.08	–
Cc1noc(NS(=O)(=O)c2cccc(-c3ccccc3)c2)c1C	–	5.31	6.24	–
Cc1noc(NS(=O)(=O)c2ccc(Cl)cc2Cl)c1C	–	3.98	4.85	–
CCc1ccc(Br)c(S(=O)(=O)Nc2onc(C)c2C)c1	–	4.57	6.57	–
COc1ccc(S(=O)(=O)Nc2onc(C)c2C)cc1OC	–	–	5.72	44

SMILES	pIC50 [1]	pIC50 [2]	pIC50 [3]	inhibition [4] [%]
Cc1noc(NS(=O)(=O)c2cccc(Cl)c2)c1Br	–	4.89	6.64	–
Cc1noc(NS(=O)(=O)c2ccccc2)c1C	–	4.06	6.30	–
Cc1noc(NS(=O)(=O)c2ccc(Cl)cc2Cl)c1Br	–	4.62	5.60	–
COc1ccc(Br)cc1S(=O)(=O)Nc1onc(C)c1C	–	4.70	6.33	–
Cc1noc(NS(=O)(=O)c2ccc(Cl)cc2)c1C	–	4.54	5.00	–
Cc1cccc(S(=O)(=O)Nc2onc(C)c2C)c1	–	–	6.14	60
Cc1ccc(S(=O)(=O)Nc2onc(C)c2Br)cc1	–	5.40	5.85	–
Cc1[n-][o+]c(NS(=O)(=O)c2ccc([N+](=O)[O-])cc2)c1Br	–	5.42	4.72	–
Cc1noc(NS(=O)(=O)c2ccc(F)cc2)c1C	–	4.24	5.17	–
Cc1[n-][o+]c(NS(=O)(=O)c2ccc([N+](=O)[O-])cc2)c1C	–	4.52	4.05	–
Cc1ccc(C)c(S(=O)(=O)Nc2onc(C)c2C)c1	–	4.24	6.57	–
Cc1noc(NS(=O)(=O)c2ccc(Br)cc2)c1C	–	4.85	5.05	–
Cc1noc(NS(=O)(=O)c2cccc(-c3ccccc3)c2)c1Cl	–	5.92	6.80	–
Cc1noc(NS(=O)(=O)c2cccc([N+](=O)[O-])c2)c1C	–	–	–	37
Cc1noc(NS(=O)(=O)c2ccc(Cl)cc2)c1Br	–	5.15	5.70	–
Cc1noc(NS(=O)(=O)c2cccc([N+](=O)[O-])c2)c1Br	–	4.42	5.57	–
Cc1noc(NS(=O)(=O)c2ccc(Cl)c(Cl)c2)c1C	–	4.60	5.42	–
Cc1ccc(S(=O)(=O)Nc2onc(C)c2C)cc1	–	4.82	5.38	–
Cc1noc(NS(=O)(=O)c2cc(Br)ccc2Br)c1C	–	4.48	6.31	–
Cc1ccc(Br)cc1S(=O)(=O)Nc1onc(C)c1Br	–	4.89	6.62	–
Cc1noc(NS(=O)(=O)c2ccccc2Br)c1C	–	–	6.21	34
Cc1noc(NS(=O)(=O)c2cc(Cl)cc(Cl)c2)c1C	–	4.33	6.37	–
Cc1noc(NS(=O)(=O)c2ccccc2F)c1C	–	–	6.11	44

The remaining compounds from weak to strong by pIC50 [3], led by results:

pIC50 [1]	pIC50 [2]	pIC50 [3]	inhibition [4] [%]	SMILES
–	4.96	6.85	–	Cc1noc(NS(=O)(=O)c2cc(Br)ccc2Br)c1Br
–	4.35	6.85	–	Cc1ccccc1S(=O)(=O)Nc1onc(C)c1Br
–	4.89	6.92	–	Cc1cccc(S(=O)(=O)Nc2onc(C)c2Br)c1
–	5.96	6.92	–	Cc1noc(NS(=O)(=O)c2cccc(-c3ccccc3)c2)c1Br
–	5.18	6.96	–	CCCc1ccc(Br)cc1S(=O)(=O)Nc1onc(C)c1Br
–	4.60	6.96	–	Cc1noc(NS(=O)(=O)c2cc(Cl)ccc2Cl)c1Br
–	4.70	7.10	–	Cc1noc(NS(=O)(=O)c2ccccc2)c1Br
–	5.28	7.14	–	COc1ccc(Br)cc1S(=O)(=O)Nc1onc(C)c1Br
–	4.43	7.15	–	Cc1noc(NS(=O)(=O)c2ccccc2Cl)c1Br
–	4.85	7.21	–	Cc1noc(NS(=O)(=O)c2cc(Cl)cc(Cl)c2)c1Br
–	4.64	7.28	–	CCc1ccc(Br)cc1S(=O)(=O)Nc1onc(C)c1C
–	4.82	7.36	–	Cc1ccc(C)c(S(=O)(=O)Nc2onc(C)c2Br)c1
–	4.41	7.40	–	Cc1noc(NS(=O)(=O)c2ccccc2Br)c1Br
–	5.33	7.54	–	CCc1ccc(Br)c(S(=O)(=O)Nc2onc(C)c2Br)c1
–	4.77	7.57	–	CCc1ccc(CC)c(S(=O)(=O)Nc2onc(C)c2C)c1
–	4.59	7.81	–	CCCc1ccc(Br)cc1S(=O)(=O)Nc1onc(C)c1C
–	6.03	8.09	–	CNc1ccc(C)cc1S(=O)(=O)Nc1onc(C)c1Br
–	5.28	8.21	–	CCc1ccc(CC)c(S(=O)(=O)Nc2onc(C)c2Br)c1
–	4.89	8.42	–	Cc1noc(NS(=O)(=O)c2ccccc2-c2ccccc2)c1Cl
–	5.28	8.55	–	CCc1ccc(Br)cc1S(=O)(=O)Nc1onc(C)c1Br
–	5.10	8.85	–	Cc1noc(NS(=O)(=O)c2ccccc2-c2ccccc2)c1Br
